# Results from a melting point compilation (Tetko et al.; mined from patent text by program, amines drawn as free bases though some values may be those of a salt).
row,SMILES,melting point [°C]
1,N#Cc1ccc2c(O)c(C(=O)NCCCCN3CCN(C(c4ccccc4)c4ccccc4)CC3)cnc2c1,223 to 225
2,CC(=O)Oc1c(C)c(C)nc2ccccc12,93 to 94
3,COc1cc(N2CCC(N3CCCN(CCO)CC3)CC2)ccc1Nc1ncc2ccc(-c3ccccc3N(C)S(C)(=O)=O)n2n1,91 to 104
4,Cn1c(=O)c2c(ncn2CC(O)Cc2noc(-c3ccccc3)n2)n(C)c1=O (stereo unspecified),179 to 180
5,CC(NC(=O)C(NC(=O)OCC1c2ccccc2-c2ccccc21)C(Cc1ccccc1)C(=O)O)C(=O)O (stereo unspecified),114 to 116
6,CC1(C)CS(=O)(=O)c2sc(S(N)(=O)=O)cc2C1O (stereo unspecified),172 to 174
7,COc1ccc(CCCC(O)CCC(=O)O)cc1 (stereo unspecified),67 to 68
8,CCC(O)(c1ccc(OCc2cccc(C)n2)cc1)c1ccccc1C(F)(F)F (stereo unspecified),128 to 129
9,O=C(O)c1cccc2c1ccn2-c1ccnc(N[C@H]2CC[C@H](O)CC2)n1,259 to 261
10,O=C(Cn1c(=O)c(=O)[nH]c2cc(C(F)(F)F)c(-n3cccc3)cc21)NCc1ccccc1,241 to 242
11,C=C(Cl)c1c(C(F)(F)F)nc(C)[nH]c1=O,164 to 166
12,CCOC(=O)C1CN(C(=O)OCc2ccccc2)CC1=O (stereo unspecified),56.6 to 59.7
13,Cc1c(C)c2c(c(C)c1N)CC(C)(CN1CCOCC1)O2 (stereo unspecified),114 to 115
14,COc1nc(NCCCN2CCOCC2)nc(OC)c1NC(=O)c1ccc(Oc2cncc([Si](C)(C)C)c2)o1,80 to 82
15,O=C1CCCN1CC1CCN(c2ccnc(C(F)(F)F)n2)CC1,118 to 120
16,CN(C)C=C(C#N)S(=O)(=O)c1ccccc1,108 to 110
17,CCCCc1nc2cccc(O)c2n1Cc1ccc(-c2ccccc2-c2nnn[nH]2)cc1,186 to 188
18,Cc1ccc(S(=O)(=O)OCCCCO[N+](=O)[O-])cc1,38 to 40
19,Cc1cc(OC2CCCCO2)c(C)cc1OCCCC(C)(C)C(=O)O (stereo unspecified),122 to 124
20,CCc1cccc(C)c1CNc1cc(C(N)=O)nc2c1nc(C)n2C,237 to 239
21,CCNc1ccc(NS(=O)(=O)c2ccc(C)cc2)c(C)c1,162 to 163
22,COc1ccc(C=CC(=O)c2c(OC)cc(OC)cc2OC(=O)CCCC(=O)O)cc1,131 to 132
23,CN1CC(c2ccno2)CC2c3cccc4[nH]cc(c34)CC21 (stereo unspecified),132 to 134
24,Cc1nc2sccn2c(=O)c1CCN1CCC(c2noc3cc(F)ccc23)CC1,165
25,Nc1nc(N)c2c(I)nn(C3CC(O)C(CO)O3)c2n1 (stereo unspecified),154

row,SMILES,melting point [°C]
1,CCN1C(Oc2ccc(C)cc2)=NS(=O)(=O)N=C1Oc1ccc(C)cc1,302 to 304
2,CCC(CC)c1ccc(Cl)c2nc3n(c12)CCCC(=O)N3c1ccc(Cl)cc1Cl,135 to 137
3,Cc1ccc(-c2nc(C(F)(F)F)cn2-c2ccc(S(C)(=O)=O)cc2)nc1,196
4,COc1ccc(-c2cc(=O)c3c(O)cc(OC)cc3o2)cc1,174 to 175
5,CCOC(=O)N1CCc2cc(S(=O)(=O)n3cc(-c4ccccc4)[nH]c3=O)ccc21,214 to 216
6,CCCc1c(OCCCCCc2ccccc2CCC(=O)O)ccc2c1OCCC2=O,94 to 96
7,OCCCNc1cc(Nc2ccc(N3CCOCC3)cc2)ncn1,198 to 199
8,O=C(O)C1C=CCn2c(=O)n(CCCS)c(=O)n21 (stereo unspecified),119 to 121
9,Cc1cc(OC(C)c2ccccc2)ccc1C(C)N(O)C(N)=O (stereo unspecified),157 to 158
10,CCCCNC(=O)CCc1ccccc1,26.7 to 33.1
11,CC(Cc1ccc(OCc2ccncc2)cc1)NCC(O)c1cccc(C(F)(F)F)c1 (stereo unspecified),83 to 90
12,NC(Cc1cc(Cl)c(Sc2ccc(O)c(Cc3ccc(=O)[nH]c3)c2)c(Cl)c1)C(=O)O (stereo unspecified),261 to 264
13,C=CCn1ccc2cc(NC(=O)c3nc4ccc(Cl)cc4n3Cc3ccccc3)ccc21,154 to 155
14,CC(=O)OCCn1cnc2c(Cl)nc(Nc3ccccc3)nc21,193 to 194
15,O=C1C(=O)c2ccccc2C2=C1SCC1(CCN(S(=O)(=O)c3cccs3)CC1)O2,245 to 248
16,COc1ccc(Cc2cc(I)ccc2OC)cn1,68 to 70
17,Cc1ccc2c([nH]c(=O)n3c(=O)[nH]nc23)c1C,380 to 382
18,COC(=O)c1cc(C=O)cnc1C1=NC(C)(C(C)C)C(=O)N1 (stereo unspecified),113 to 117
19,C=C(C)C#Cc1ccc2c(c1)NC(=O)CC(c1cccc(C#N)c1)=N2,231
20,Cc1cccc(CC(=O)c2ccnc(-c3ccc(N4CCOCC4)cc3)c2)n1,114
21,CC1(C)CCC(C)(C)c2cc(-c3cc(-c4ccc(C(=O)O)cc4)ccc3OCCCCCCCCO)ccc21,155 to 160
22,CCSc1cc2c(cc1F)C(=O)C(=O)N2,215
23,COC(=O)c1ccc[nH]c1=O,148 to 151
24,CC1Cc2cc3c(cc2C(c2ccc([N+](=O)[O-])cc2)=NN1C#N)OCO3 (stereo unspecified),172 to 176
25,N#Cc1ccc(C(=O)NC(=S)NC2CCCCC2)cc1,136 to 137

# Other lines, results leading:
row,melting point [°C],SMILES
1,133 to 134,Cc1c(NC(=O)c2cc3c(s2)CCCC3)cccc1-c1cn(C)c(=O)c(Nc2ccc([C@@H](C(=O)N(C)C)N(C)C(C)C)cc2)n1
2,60 to 63,Cc1ccc(S(=O)(=O)OCC2Cc3cccc(OS(=O)(=O)C(F)(F)F)c3O2)cc1 (stereo unspecified)
3,192 to 193,CCOC(=O)c1cc2cc(OC(F)(F)F)cc(NS(=O)(=O)c3cccs3)c2[nH]1
4,85 to 88,O=C(O)C(Cc1ccccc1)Oc1ccc(-c2ccc(-c3c(Cc4ccccc4)oc4cccnc34)cc2)cc1 (stereo unspecified)
5,180 to 184,C[C@@H]1CNC(=O)c2cc3c(Cl)cccc3n21
6,251 to 254,CC1=CC2=C(N3CN(N4CCOCC4)C=C3N=N2)N(c2ccccc2Cl)C1
7,172,CCOc1ccc(-c2ccc(=O)[nH]n2)cc1OC
8,110 to 112,CCCN1C(=O)N2CCN=C2c2c1ncn2C
9,47.6 to 48.1,Cc1nc(Cl)c2cc(C)oc2n1
10,147 to 149,O=c1cc(-c2ccc(OCc3ccccc3)c(OCc3ccccc3)c2)oc2ccc(OCC3CO3)cc12 (stereo unspecified)
11,136 to 139,COc1ccc(C(=NOC(C)=O)c2cccc(F)c2F)c(O)c1Cl
12,82 to 84,CC(C)(C)OC(=O)N1CSCC1C(=O)Nc1ccc(-n2nc(C(F)(F)F)cc2C(F)(F)F)cc1 (stereo unspecified)
13,112 to 113,COc1cc(-c2ccc(Br)cc2)oc1-c1ccc(Br)cc1
14,148 to 150,COc1cccc2c(Nc3ccc(C)c(O)c3)c(C#N)cnc12
15,203 to 205,Cc1cc(-c2nc(C)c(C)o2)cc(C)c1O
16,218 to 220,CCCCc1ccc(N)c(C(=O)C(=O)OC(=O)C(=O)c2cc(CCCC)ccc2N)c1
17,152,O=C(Nc1cccc(Cl)c1)c1c(C(F)(F)F)nc2c(C(F)(F)F)cccc2c1O
18,64 to 66,CCc1ccc(NCc2cc(OC)c(OC)c(OC)c2)cc1
19,126,CCOC(=O)C1=C(C)NC(COCCN=[N+]=[N-])=C(C(=O)OC)C1c1cccc(Cl)c1Cl (stereo unspecified)
20,125 to 127,CNS(=O)(=O)CC(=O)c1cc(OC)c(OC)c(OC)c1N
21,177 to 178,O=C(O)Cc1cc2c(c([N+](=O)[O-])c1)NC(C(F)(F)F)CC2 (stereo unspecified)
22,230 to 232,O=S(=O)(NC(CO)(CO)CO)c1cncc(C#Cc2cnn3c(C(F)(F)F)cc(-c4ccc(C(F)(F)F)cc4)nc23)c1
23,146 to 148,CCOC(=O)c1ccc2c(SC(=O)N3CCSCC3)cccn2c1=O
24,110 to 119,COc1cc2c(cc1Nc1ncc(Cl)c(N[C@H]3[C@@H](C(N)=O)[C@@H]4C=C[C@H]3C4)n1)CCN(Cc1ncco1)CC2
25,108 to 110,COc1ccc(C(=O)OC2C=C(C)C(=O)CC(C)(C)C2O)cc1 (stereo unspecified)
26,62 to 64,CCCCCCCCCCCCSC(C)(C)C(=O)O

row,melting point [°C],SMILES
1,125 to 127,Cn1cc(C2=C(c3c4n(c5ccccc35)CCN(C(=O)OC(C)(C)C)C4)C(=O)OC2=O)c2ccccc21
2,60 to 68,Cc1c(Cl)sn(-c2ccccc2)c1=O
3,66 to 67.5,CCNC(=C[N+](=O)[O-])SC
4,224,CC(C)NCCCC[C@@H](N)C(=O)O
5,260 to 268,Nc1c(-c2ccc(-c3cccnc3)cc2)nc2ccc(F)cc2c1C(=O)O
6,133 to 134,COC(=O)c1cc2ccc(SCc3ccc(OC)cc3)cc2nc1OC
7,197,O=c1[nH]c2cc(-n3cccc3)c([N+](=O)[O-])cc2n(C2CCCCC2)c1=O
8,297,Cc1sc(S(N)(=O)=O)cc1NC(=O)c1cnn2c(C(F)(F)F)cc(-c3ccc(C(F)(F)F)cc3)nc12
9,58 to 61,CCOC(=O)C1Oc2ccc(Cl)c(Cl)c2O1 (stereo unspecified)
10,152,OC(c1ccccc1)(c1cccc(C(F)(F)F)c1)c1ncc[nH]1 (stereo unspecified)
11,64.8 to 66.3,CCCCCS(=O)(=O)NC(=O)/C=C/c1ccc(OCCOC)cc1OCC1CC1
12,107 to 108,O=C1CC(=CN2CCOCC2)Oc2c(OCc3ccccc3)cccc21
13,201 to 204,Ic1c[nH]c2ncccc12
14,145 to 146,CCOC(=O)/C=C/c1c(-c2ccccc2)c2c3ccccc3ccn2c1C(C)C
15,174,O=C(NC(=O)N1CCC(Cc2ccccc2)CC1)c1ccc2[nH]c(=O)oc2c1
16,215 to 216,CCCc1nc(C)n2[nH]c(=O)nc2c1Cc1ccc(-c2ccccc2C#N)cc1
17,265 to 266,O=c1[nH]c2cc(Cl)ccc2n(C2CCCCC2)c1=O
18,148 to 153,COc1ccc(C=C2OC(=O)c3ccccc32)cc1N
19,146,CC(C)CC(NC(=O)OCc1ccccc1)C(=O)NC(C(=O)Nc1n[nH]c(=S)s1)C(C)C (stereo unspecified)
20,195 to 197,CCCOc1ccccc1-c1ncc(NC(C)=O)c(=O)[nH]1
21,69 to 70,COc1nc(I)cc(C(O)Cc2ccccc2)c1C (stereo unspecified)
22,155 to 157,C=CCC(Cc1ccc(Cl)c(Cl)c1)NC(=O)c1cc(C)cc(C)c1 (stereo unspecified)
23,88 to 89,CS(=O)(=O)NC(=O)CCCCBr
24,150 to 152,Cc1ccc(C(=O)NC2CCN(CCCCl)CC2)cc1
25,95 to 97,O=C1CCCN1c1ccc(F)cc1F
